How the values were obtained:
[1] = tested on: Wilson strain house flies; type: in vivo, house fly (susceptible Wilson strain); settings: for Contact Synergistic Ratio, Carbaryl (LC50 insecticide alone / LC50 with synergist): in vivo; for Contact Synergistic Ratio, Pyrolan (LC50 insecticide alone / LC50 with synergist): synergist to insecticide 5:1 by weight, 24 h
In short: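 Flies held at room temperature in glass jars coated with acetone-deposited insecticide film, alone or with synergist at 5:1 synergist:insecticide by weight; 10% sugar supplied.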

[2] = tested on: mice; assay: synergism of acute toxicity of Dimetilan, GS 13005, Secobarbital and Methadone (intraperitoneal); type: in vivo, Swiss albino white male mice; settings: for number of mice dead: 48 hours, of eight mice
In short: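 Male Swiss albino mice (5–6 weeks, 23–27 g), eight per dose; synergist in corn oil given i.p. 1 h before i.p. insecticide or drug (drugs in distilled water). Lethality recorded over at least 6 h; controls received corn oil plus agent alone.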

[3] = tested on: Rutgers A strain house flies; assay: topical application test, percent kill after 24 hours, Rutgers A strain; type: in vivo, house fly (resistant Rutgers A strain)
Procedure: In Table IX, and in the tables following it, the doses of topically applied insecticides and of synergists unless otherwise noted are expressed as micrograms per fly (μg/fly).
The synergistic effect of O-(2-propynyl) oximes with mobam was determined from topical application tests on susceptible, female, IN/WHO strain house flies and from tests on resistant, female, Rutgers A strain house flies. The synergist and insecticide were dissolved in ACS Grade acetone in such quantities that a 1.0μ liter volume applied to the thorax of 3-to-5 day old CO2 -anesthetized female adult house flies contained the desired dosage. After being treated, the flies were confined, 10 to a plaster petri dish, with 3-5 dishes/treatment, and held for 24-hr. observation of mortality. Reconstituted skim milk on cotton dental wicks was provided during the holding period. The percent kills after 24 hours are shown in Table X for the IN/WHO strain and Table XI for the Rutgers A strain.
The synergistic effect of benzyl 2-propynyl ethers with mobam was determined from topical application tests on IN/WHO and Rutgers A strain houseflies, following the procedure of Example 5. The percent kills after 24 hours are shown in Table XIV for the IN/WHO strain and in Table XV for the Rutgers A strain.
The synergistic effect with Diazinon of compounds I-B, I-D, I-F, I-G, I-H and I-I, identified in Tables I and Ia, was determined from topical application tests on IN/WHO strain houseflies and on Rutgers A strain houseflies by the procedure of Example 5. The percent kills after 24 hours are shown in Table XXV for the IN/WHO strain and Table XXVI for the Rutgers A strain.
The synergistic effect with GS 13005 of compounds I-A, I-B, I-D, I-E, I-F, I-G and I-I was determined from topical application tests to IN/WHO strain, Rutgers A strain and polyvalent CH strain houseflies using the procedures of Example 5. The percent kills of the IN/WHO strain flies after 24 hours are shown in Table XXVIII; of the Rutgers A strain, in Table XXIX; and of the polyvalent CH strain, in Table XXX. The doses of insecticide alone to the CH strain files caused 10-40% mortality.
The synergistic effect with Diazinon and GS 13005 of various of the benzyl 2-propynyl ethers identified in Tables II and IIa was determined by topical application tests on IN/WHO strain, and Rutgers A strain and polyvalent, resistant, CH strain houseflies using the procedures of Example 5. The percent kills after 24 hours of IN/WHO strain flies are shown in Table XXXI; of Rutgers A strain flies, in Table XXXII; and of CH strain flies, in Table XXXIII. The doses of insecticide alone to the CH strain flies caused 10-40% mortality.
The synergistic effect on IN/WHO strain flies and Rutgers A strain flies of compound IV-C with GS 13005 and with Diazinon was determined by the topical application procedure of Example 5. The percent kills of IN/WHO strain flies after 24 hours are shown in Tables XXXVI and XXXVII; the percent kills of Rutgers A strain flies are shown in Tables XXXVIII and XXXIX.

[4] = tested on: CH strain flies; assay: spray application of pyrethrum, average percent knockdown with time; type: in vivo, housefly (CH strain); settings: pyrethrum 100 + synergist 100 mg/cc
Procedure: The average percent knockdown of CH strain flies, as a function of time, resulting from spray application of pyrethrum, alone and with synergists, are given in Table XXXXIII. Duplicate tests were performed using 50 CH strain houseflies per test. Test solutions of 100 mg and 200mg of pyrethrum per cc of acetone, 200 mg of synergist per cc of acetone, and a mixture of 100 mg of pyrethrum and 100 mg of synergist per cc of acetone were prepared. The fifty CH strain houseflies were put in a 40 liter spray chamber and 1 cc of the test solution was sprayed into the test chamber with a spray pistol. The synergists alone at 200 mg/cc caused no knockdown.

[5] = tested on: houseflies; assay: percent kill with Diazinon, Table XXVII (strain not given); type: in vivo, housefly; settings: Diazinon 5 + synergist 10 μg/fly, 1440 min
[6] = Dimetilan 8 mg/kg + synergist 240 mg/kg ip
[7] = Mobam 0.30 + synergist 1.5 μg/fly
[8] = Mobam 0.15 + synergist 0.75 μg/fly
[9] = Dimetilan 8 mg/kg + synergist 80 mg/kg ip
[10] = GS 13005 71 mg/kg + synergist 213 mg/kg
[11] = Methadone 32 mg/kg + synergist 215 mg/kg
[12] = Secobarbital 90 mg/kg + synergist 215 mg/kg

Structure (SMILES): C#CCOCc1ccc(Cl)c(Cl)c1 [II-C]
- Contact Synergistic Ratio, Carbaryl (LC50 insecticide alone / LC50 with synergist) [1]: 100
- Contact Synergistic Ratio, Pyrolan (LC50 insecticide alone / LC50 with synergist) [1]: 15
- number of mice dead [2, 6]: 0
- percent kill after 24 hours [3, 7]: 20%

Structure (SMILES): C#CCOCc1c(Cl)ccc(Cl)c1Cl [II-E]
- average percent knockdown ([4]; 5 min): 5%
- average percent knockdown ([4]; 10 min): 9%
- average percent knockdown ([4]; 15 min): 17%
- average percent knockdown ([4]; 20 min): 44%
- average percent knockdown ([4]; 25 min): 55%
- average percent knockdown ([4]; 30 min): 59%
- average percent knockdown ([4]; 40 min): 77%
- average percent knockdown ([4]; 50 min): 93%
- average percent knockdown ([4]; 60 min): 95%
- Contact Synergistic Ratio, Carbaryl (LC50 insecticide alone / LC50 with synergist) [1]: 120
- Contact Synergistic Ratio, Pyrolan (LC50 insecticide alone / LC50 with synergist) [1]: 20
- number of mice dead [2, 6]: 0
- percent kill after 24 hours [3, 8]: 17%
- percent kill after 24 hours ([3]; synergist alone 7.5 μg/fly): 0%

Structure (SMILES): C#CCON=C(C)c1ccc(Cl)cc1 [I-D]
- average percent knockdown ([4]; 5 min): 6%
- average percent knockdown ([4]; 10 min): 15%
- average percent knockdown ([4]; 15 min): 26%
- average percent knockdown ([4]; 20 min): 39%
- average percent knockdown ([4]; 25 min): 52%
- average percent knockdown ([4]; 30 min): 60%
- average percent knockdown ([4]; 40 min): 86%
- average percent knockdown ([4]; 50 min): 87%
- average percent knockdown ([4]; 60 min): 88%
- Contact Synergistic Ratio, Carbaryl (LC50 insecticide alone / LC50 with synergist) [1]: 177
- Contact Synergistic Ratio, Pyrolan (LC50 insecticide alone / LC50 with synergist) [1]: 25
- number of mice dead [2, 9]: 1
- number of mice dead [2, 6]: 6
- percent kill after 24 hours [3, 8]: 19%
- percent kill after 24 hours ([3]; Mobam 0.60 + synergist 3.0 μg/fly): 100%
- percent kill [5]: 100%

Structure (SMILES): C#CCOCc1ccc(Cl)c(Cl)c1Cl [II-D]
- Contact Synergistic Ratio, Carbaryl (LC50 insecticide alone / LC50 with synergist) [1]: 200
- Contact Synergistic Ratio, Pyrolan (LC50 insecticide alone / LC50 with synergist) [1]: 30
- number of mice dead [2, 6]: 0
- mice lethality (number dead) [2, 10]: 3
- mice lethality (number dead) [2, 11]: 2
- mice lethality (number dead) [2, 12]: 1

Structure (SMILES): C#CCON=C(C)c1ccc2ccccc2c1 [I-F]
- Contact Synergistic Ratio, Carbaryl (LC50 insecticide alone / LC50 with synergist) [1]: 200
- Contact Synergistic Ratio, Pyrolan (LC50 insecticide alone / LC50 with synergist) [1]: 50
- number of mice dead [2, 9]: 0
- number of mice dead [2, 6]: 4
- percent kill after 24 hours ([3]; Diazinon 3.0 + synergist 3.0 μg/fly): 95%
- percent kill after 24 hours ([3]; GS 13005 1.0 + synergist 5.0 μg/fly): 95%
- percent kill after 24 hours [3, 7]: 38%

Structure (SMILES): C#CCOCc1c(Cl)cccc1[N+](=O)[O-] [II-K]
- number of mice dead [2, 9]: 0
- number of mice dead [2, 6]: 6
- mice lethality (number dead) [2, 10]: 3
- mice lethality (number dead) [2, 11]: 2
- mice lethality (number dead) [2, 12]: 1

Structure (SMILES): C#CCON=Cc1ccc(Cl)cc1Cl [I-G]
- average percent knockdown ([4]; 5 min): 7%
- average percent knockdown ([4]; 10 min): 12%
- average percent knockdown ([4]; 15 min): 31%
- average percent knockdown ([4]; 20 min): 36%
- average percent knockdown ([4]; 25 min): 59%
- average percent knockdown ([4]; 30 min): 66%
- average percent knockdown ([4]; 40 min): 89%
- average percent knockdown ([4]; 50 min): 93%
- average percent knockdown ([4]; 60 min): 94%
- number of mice dead [2, 6]: 0
- percent kill after 24 hours ([3]; Diazinon 3.0 + synergist 15 μg/fly): 100%
- percent kill [5]: 90%
